ChEMBL document CHEMBL1201862, “PubChem BioAssay data set” (2004)
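Results reflect a 48-hour exposure of cells in 96-well plates to compound at five concentrations. At the GI50, growth is halved.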 Calls of active or inactive are those of the source. No stated cut-off is given here; in the data, active = GI50 up to about 1.1 µM and inactive = higher. Non-standard residues stand in square brackets, D forms with d. Residues, ends and D or L forms follow the SMILES beside them. ξ: configuration not given here. *: point of attachment. ξHyp = O=C(O)C1CC(O)CN1; Cbz = O=C(OCc1ccccc1)*

Assays:
Experiment in all cases: inhibition of tumour cell growth, NCI panel, 48 h
M14 = system: M14
SR = system: SR
Hs-578T = system: Hs-578T
MCF7 = system: MCF7
OVCAR-4 = system: OVCAR-4
SNB-75 = system: SNB-75
UACC-62 = system: UACC-62
T47D = system: T47D
DU-145 = system: DU-145
786-0 = system: 786-0
MDA-N = system: MDA-N
HL-60 = system: HL-60
MDA-MB-231 = system: MDA-MB-231
BT-549 = system: BT-549
HOP-92 = system: HOP-92
M19-MEL = system: M19-MEL
HOP-18 = system: HOP-18
SF-539 = system: SF-539
SNB-78 = system: SNB-78
LXFL 529 = system: LXFL 529

SMILES | GI50 (M14) | GI50 (SR) | GI50 (Hs-578T) | GI50 (MCF7) | GI50 (OVCAR-4) | GI50 (SNB-75) | GI50 (UACC-62) | GI50 (T47D) | GI50 (DU-145) | GI50 (786-0) | GI50 (MDA-N) | GI50 (HL-60) | GI50 (MDA-MB-231) | GI50 (BT-549) | GI50 (HOP-92) | GI50 (M19-MEL) | GI50 (HOP-18) | GI50 (SF-539) | GI50 (SNB-78) | GI50 (LXFL 529)
NC(=O)CNC(=O)C1CC(O)CN1C(=O)OCc1ccccc1 (centres undefined) (Cbz-[ξHyp]-Gly-NH2) | > 100 µM (inactive) | > 100 µM (inactive) | > 100 µM (inactive) | > 100 µM (inactive) | > 100 µM (inactive) | > 100 µM (inactive) | > 100 µM (inactive) | > 100 µM (inactive) | > 100 µM (inactive) | > 100 µM (inactive) | > 100 µM (inactive) | > 100 µM (inactive) | > 100 µM (inactive) | > 100 µM (inactive) |  |  |  |  |  | 
CC1=CC2c3cccc4[nH]cc(c34)CC2N(C)C1 (centres undefined) |  |  |  | 95.1 µM (inactive) | > 100 µM (inactive) | 38.5 µM (inactive) | > 91.8 µM (inactive) |  |  |  |  | 31.6 µM (inactive) |  |  | 24.4 µM (inactive) | > 100 µM (inactive) | 23.4 µM (inactive) | > 100 µM (inactive) | > 100 µM (inactive) | 
CN(C)CCNC(=O)c1cccc2c1C(=O)c1ccccc1C2=O |  |  |  | 16.2 µM (inactive) | 28.2 µM (inactive) | > 100 µM (inactive) | 21.4 µM (inactive) |  |  |  |  | 20.6 µM (inactive) |  |  | 23.8 µM (inactive) | 20 µM (inactive) | > 100 µM (inactive) | 40.6 µM (inactive) | 24.9 µM (inactive) | 
COc1ccc(C2C3COc4ccccc4C3=NN2c2ccccc2)cc1 (centres undefined) | > 100 µM (inactive) | 31.6 µM (inactive) | > 100 µM (inactive) | 63.8 µM (inactive) | > 100 µM (inactive) | > 100 µM (inactive) | > 100 µM (inactive) | 48.8 µM (inactive) |  | > 100 µM (inactive) | > 100 µM (inactive) |  | > 100 µM (inactive) | > 100 µM (inactive) | > 100 µM (inactive) |  |  | > 100 µM (inactive) |  | 
CCOC(=O)C(O)(NC(=O)c1ccc(F)cc1)C(F)(F)F (centres undefined) | > 100 µM (inactive) | > 100 µM (inactive) | > 100 µM (inactive) | > 100 µM (inactive) | > 100 µM (inactive) | > 100 µM (inactive) | > 100 µM (inactive) | > 100 µM (inactive) | > 100 µM (inactive) |  | > 100 µM (inactive) | > 100 µM (inactive) | 59.8 µM (inactive) | > 100 µM (inactive) | > 100 µM (inactive) |  |  | > 100 µM (inactive) |  | 
CCn1c(-c2ccccc2)cs/c1=N\C(P(=O)(O)O)P(=O)(O)O | > 100 µM (inactive) | > 100 µM (inactive) | > 100 µM (inactive) | > 100 µM (inactive) |  | > 100 µM (inactive) | > 100 µM (inactive) |  | > 100 µM (inactive) | > 100 µM (inactive) | > 100 µM (inactive) | > 100 µM (inactive) | > 100 µM (inactive) | > 100 µM (inactive) | > 100 µM (inactive) |  |  | > 100 µM (inactive) |  | 
CC(=O)Nc1oc(C)nc1C#N | > 100 µM (inactive) | > 100 µM (inactive) | > 100 µM (inactive) | > 100 µM (inactive) | > 100 µM (inactive) |  | > 100 µM (inactive) |  | > 100 µM (inactive) | > 100 µM (inactive) | > 100 µM (inactive) | > 100 µM (inactive) | > 100 µM (inactive) |  | > 100 µM (inactive) |  |  |  |  | 
CCc1cc2c(cc1CCCC(=O)O)CC1(Cc3ccc(C(=O)O)cc3C1)C2 (centres undefined) | > 100 µM (inactive) | > 100 µM (inactive) | > 100 µM (inactive) | > 100 µM (inactive) | > 100 µM (inactive) | > 100 µM (inactive) |  | > 100 µM (inactive) | > 100 µM (inactive) | > 100 µM (inactive) | > 100 µM (inactive) | > 100 µM (inactive) | > 100 µM (inactive) |  | > 100 µM (inactive) |  |  | > 100 µM (inactive) |  | 
Cc1cccc(N2C(=O)C3c4[nH]c5ccc(C)cc5c4C4CCC(C(C)(C)C)CC4C3C2=O)c1 (centres undefined) | 20.2 µM (inactive) |  |  |  | 23.1 µM (inactive) |  | 23.3 µM (inactive) | 14.3 µM (inactive) | 16.1 µM (inactive) |  |  | 17.7 µM (inactive) | 18.8 µM (inactive) | 27.4 µM (inactive) | 15.7 µM (inactive) |  |  |  |  | 
COc1cc(C(C)O)c(S(=O)(=O)CC(C)O)nn1 (centres undefined) | > 100 µM (inactive) | 43.6 µM (inactive) | > 100 µM (inactive) | > 100 µM (inactive) | > 100 µM (inactive) |  | > 100 µM (inactive) |  | > 100 µM (inactive) |  | > 100 µM (inactive) | > 100 µM (inactive) |  | > 100 µM (inactive) | > 100 µM (inactive) |  |  | > 100 µM (inactive) |  | 
COC1C(O)CC(OC2CC(Oc3cc4cc5c(c(O)c4c(O)c3C)C(=O)[C@@H](OC3CC(OC4CC(OC6CC(C)(O)C(OC(C)=O)C(C)O6)C(O)C(C)O4)C(O)C(C)O3)[C@H]([C@H](OC)C(=O)[C@@H](O)[C@@H](C)O)C5)OC(C)C2OC(C)=O)OC1C (some centres undefined) [CHROMOMYCIN] |  | < 0.01 µM (active) | 2.13e-05 µM (active) | 0.00312 µM (active) | < 0.01 µM (active) | < 0.01 µM (active) | 0.00295 µM (active) | < 0.01 µM (active) | 2.48e-05 µM (active) |  | 3.15e-05 µM (active) | 0.0127 µM (active) | 3e-05 µM (active) | 1.49e-05 µM (active) | < 0.01 µM (active) | 0.00337 µM (active) | 0.00445 µM (active) | 0.00326 µM (active) | 0.00337 µM (active) | 
Cc1[nH]c(=O)[nH]c(=O)c1C(=O)N(CCO)Cc1ccccc1 | > 100 µM (inactive) | > 100 µM (inactive) | 14.2 µM (inactive) | > 100 µM (inactive) | 29.3 µM (inactive) |  | > 100 µM (inactive) | > 100 µM (inactive) | > 100 µM (inactive) |  | > 100 µM (inactive) | > 100 µM (inactive) | > 100 µM (inactive) | > 100 µM (inactive) | 27 µM (inactive) |  |  | > 100 µM (inactive) |  | 
COc1cccc(N2C(=O)C3c4[nH]c5ccc(C)cc5c4C4CCC(C(C)(C)C)CC4C3C2=O)c1 (centres undefined) | 8 µM (inactive) | 2 µM (inactive) | 3.19 µM (inactive) | 2.99 µM (inactive) | 6.27 µM (inactive) | 2.51 µM (inactive) | > 10 µM (inactive) | 7.28 µM (inactive) | > 10 µM (inactive) |  | > 10 µM (inactive) | 1.95 µM (inactive) | 5.48 µM (inactive) |  |  |  |  | 2.86 µM (inactive) |  | 
Cc1c2c(cc3c1[nH]c1ccccc13)C(c1ccc(F)cc1)=NCC2 |  |  |  | 1.09 µM (active) | 0.703 µM (active) | 1.24 µM (inactive) | 0.935 µM (active) |  |  |  |  | 0.358 µM (active) |  |  | 1.44 µM (inactive) | 1.21 µM (inactive) | 2.88 µM (inactive) | 1.13 µM (inactive) | 1.81 µM (inactive) | 
COc1cc([C@@H]2c3cc4c(c(O[C@@H]5O[C@H]6CO[C@@H](C)O[C@H]6[C@H](O)[C@@H]5O)c3C[C@H]3COC(=O)[C@@H]32)OCO4)cc(OC)c1O |  |  |  | 4.15 µM (inactive) | 9.16 µM (inactive) | 5.32 µM (inactive) | 4.8 µM (inactive) |  |  |  |  | 4.41 µM (inactive) |  |  | 25.7 µM (inactive) | 20.5 µM (inactive) | 11.7 µM (inactive) | 2.81 µM (inactive) | 6.03 µM (inactive) | 
Cc1cc(C)c(S(=O)(=O)N(CCCN)OCCON(CCCN)S(=O)(=O)c2c(C)cc(C)cc2C)c(C)c1 | 2.75 µM (inactive) | 3.12 µM (inactive) | 2.67 µM (inactive) | 2.59 µM (inactive) | 3.3 µM (inactive) | 3.42 µM (inactive) | 4.19 µM (inactive) | 4.92 µM (inactive) | 5.68 µM (inactive) | 3.93 µM (inactive) | 2.74 µM (inactive) |  | 2.89 µM (inactive) | 7.78 µM (inactive) | 6.24 µM (inactive) |  |  | 2.49 µM (inactive) |  | 
C[n+]1c2ccccc2c(C(=O)NC(CCCNC(=N)N)C(=O)O)c2ccccc21 (centres undefined) | > 100 µM (inactive) | 1.31 µM (inactive) | > 100 µM (inactive) | > 100 µM (inactive) | > 100 µM (inactive) | > 100 µM (inactive) | > 100 µM (inactive) | > 100 µM (inactive) | > 100 µM (inactive) | > 100 µM (inactive) | > 100 µM (inactive) |  | > 100 µM (inactive) | > 100 µM (inactive) |  |  |  | > 100 µM (inactive) |  | 
N#CCCC1(CCC#N)CCCCCCC(CCC#N)(CCC#N)C(O)C1O (centres undefined) | > 100 µM (inactive) | 65.3 µM (inactive) |  | > 100 µM (inactive) | > 100 µM (inactive) | > 100 µM (inactive) |  | > 100 µM (inactive) | > 100 µM (inactive) | > 100 µM (inactive) | > 100 µM (inactive) |  |  |  | > 100 µM (inactive) |  |  | > 100 µM (inactive) |  | 
Nc1nnc2nc(CC(=O)/C=C/c3ccccc3)c(=O)[nH]n12 | > 100 µM (inactive) |  |  |  | > 100 µM (inactive) | > 100 µM (inactive) | > 100 µM (inactive) |  |  | > 100 µM (inactive) |  | > 100 µM (inactive) |  |  | > 100 µM (inactive) | > 100 µM (inactive) |  | > 100 µM (inactive) | > 100 µM (inactive) | > 100 µM (inactive)
O=S(=O)(O)c1cc2ccc1/C=C\c1ccc(cc1S(=O)(=O)O)/N=N\c1ccc(c(S(=O)(=O)O)c1)/C=C\c1ccc(cc1S(=O)(=O)O)/N=N\2 |  |  |  | > 100 µM (inactive) | > 86.1 µM (inactive) | > 100 µM (inactive) | > 100 µM (inactive) |  |  |  |  | > 100 µM (inactive) |  |  | > 100 µM (inactive) | > 100 µM (inactive) | > 100 µM (inactive) | > 100 µM (inactive) | > 100 µM (inactive) | 
